# Data published in PubChem BioAssay AID743071 (Broad Institute, 2013).
# Active and inactive are the calls of the source. How the calls were made is not given here.
# Test system: M. tuberculosis wild type plus biotin, growth inhibition
# Assay: bioa inhibitor dry powder, mtb growth inhibition, wild type strain with biotin (AID 743071)
# Settings: for IC90: measured here: Mtb growth IC90
SMILES,IC50,IC90
CC(C)(C)c1ccc(C(=O)N2CCN(c3ccc4c(c3)OCO4)CC2)cc1,15 µM,> 50 µM
O=C(Nc1ccc2[nH]ccc2c1)N1CCN(c2ccccc2)CC1,8.5 µM,> 50 µM
COc1ccc(-c2cc(C(F)(F)F)n3nc(C(=O)Nc4cccnc4)cc3n2)cc1,> 50 µM (inactive),> 50 µM
O=C(O)CC/C(=C\c1ccccc1[N+](=O)[O-])c1nc2ccccc2s1,> 50 µM (inactive),> 50 µM
CC(=O)c1ccc(N2CCN(C(=O)c3cccc(F)c3)CC2)cc1,> 50 µM (inactive),> 50 µM
Cc1ccc(/C=C(\CCC(=O)O)c2nc3ccccc3s2)cc1,2.2 µM,5.6 µM
COc1cccc(NC(=O)N2CCN(c3ccccc3)CC2)c1,50 µM,> 50 µM
O=C(Nc1cccnc1)N1CCN(c2ccccc2)CC1,> 50 µM (inactive),> 50 µM
CC(=O)c1ccc(N2CCN(Cc3ccc4c(c3)OCO4)CC2)cc1,50 µM,> 50 µM
Cc1ccc(/C=C(\CCC(=O)O)c2nc3ccccc3s2)cc1[N+](=O)[O-],2 µM,8.7 µM
Cc1cc(C)n2nc(C(=O)Nc3cccnc3)cc2n1,> 50 µM (inactive),> 50 µM
O=C(COc1ccc2ccc(=O)oc2c1)N1CCN(c2ccc(F)cc2)CC1,> 50 µM (inactive),> 50 µM
CCc1ccc(C(=O)N2CCN(Cc3ccc4c(c3)OCO4)CC2)cc1,8.8 µM,> 50 µM
Cc1ccccc1/C=C(\CCC(=O)O)c1nc2ccccc2s1,8.4 µM,40.4 µM
O=C(Nc1ccc(Cl)c(-c2nc3ccccc3[nH]2)c1)c1cccnc1,6.5 µM,> 50 µM
O=C(Nc1ccccc1)N1CCN(c2ccccc2)CC1,11.7 µM,> 50 µM
CC(=O)c1ccc(N2CCN(C(=O)c3ccc(F)cc3)CC2)cc1,> 50 µM (inactive),> 50 µM
CC(=O)c1ccc(N2CCN(C(=O)c3cccnc3)CC2)cc1,> 50 µM (inactive),> 50 µM
Cc1nc2cc(NC(=O)N3CCN(c4ccccc4)CC3)ccc2o1,50 µM,> 50 µM
CC(=O)c1ccc(N2CCN(C(=O)c3ccccc3)CC2)cc1,> 50 µM (inactive),> 50 µM

SMILES,IC50,IC90
Cc1ccc(NC(=O)N2CCN(c3ccccc3)CC2)cc1,8 µM,> 50 µM
O=C(Nc1cccnc1)c1cc2nc(-c3cccs3)cc(C(F)(F)F)n2n1,> 50 µM (inactive),> 50 µM
COc1ccc(C(=O)N2CCN(c3ccc(C(C)=O)cc3)CC2)cc1,81.4 µM (inactive),> 50 µM
Cc1ccc(/C=C(\CC(=O)O)c2nc3ccccc3s2)cc1[N+](=O)[O-],7.2 µM,> 50 µM
COc1ccc(N2CCN(C(=O)c3ccc4c(c3)OCO4)CC2)cc1,10.1 µM,> 50 µM
O=C(O)CC/C(=C\c1ccc([N+](=O)[O-])cc1)c1nc2ccccc2s1,8.2 µM,> 50 µM
COc1cccc(C(=O)N2CCN(c3ccc(C(C)=O)cc3)CC2)c1,> 50 µM (inactive),> 50 µM
CC(=O)c1ccc(N2CCN(C(=O)c3ccc4c(c3)OCCO4)CC2)cc1,> 50 µM (inactive),> 50 µM
COC(=O)c1c(C(=O)OC)c(-c2cccc(F)c2)n2c1CS(=O)C2 (stereo not given),> 50 µM (inactive),> 50 µM
CC(=O)c1ccc(N2CCN(C(=O)c3cccc(Cl)c3)CC2)cc1,> 50 µM (inactive),> 50 µM
O=C(Nc1ccncc1)c1cc2nc(C3CC3)cc(C(F)F)n2n1,> 50 µM (inactive),> 50 µM
COc1ccc(NC(=O)N2CCN(c3ccccc3)CC2)cc1,> 50 µM (inactive),> 50 µM
O=C(c1ccc2c(c1)OCO2)N1CCN(c2ccc(Cl)cc2)CC1,12.7 µM,42.7 µM
CCc1ccc(N2CCN(C(=O)c3ccc4c(c3)OCO4)CC2)cc1,8.7 µM,> 50 µM
O=C(Nc1ccc(F)cc1)N1CCN(c2ccccc2)CC1,19.8 µM,> 50 µM
O=C(c1ccc2c(c1)OCO2)N1CCN(c2ccc(F)cc2)CC1,18.9 µM,> 50 µM
O=C(Nc1cccnc1)c1cnn2c(C(F)F)cc(C3CC3)nc12,> 50 µM (inactive),> 50 µM
O=C(Nc1ccc2snnc2c1)N1CCN(c2ccccc2)CC1,> 50 µM (inactive),> 50 µM
CC(=O)c1ccc(N2CCN(C(=O)c3ccc(C)cc3)CC2)cc1,> 50 µM (inactive),> 50 µM
CC(=O)c1ccc(N2CCN(C(=O)c3ccc(Br)cc3)CC2)c(F)c1,> 50 µM (inactive),> 50 µM

SMILES,IC50,IC90
Cc1ccc(-c2cc(C(F)(F)F)n3nc(C(=O)Nc4cccnc4)cc3n2)cc1,> 50 µM (inactive),> 50 µM
Cc1nc2ccc(NC(=O)N3CCN(c4ccccc4)CC3)cc2s1,1.9 µM,7.3 µM
CCN(CC)c1ccc2cc(C(=O)c3cccs3)c(=O)oc2c1,5.5 µM,> 50 µM
O=C(Nc1cccc(F)c1)N1CCN(c2ccccc2)CC1,7.9 µM,> 50 µM
Cc1cc(C)n2nc(C(=O)Nc3cccnc3)nc2n1,> 50 µM (inactive),> 50 µM
Cc1ccc(/C=C(\CCCC(=O)O)c2nc3ccccc3s2)cc1[N+](=O)[O-],9.6 µM,> 50 µM
O=C(Nc1ccc(Cl)cc1)c1cc2nc(C3CC3)cc(C(F)(F)F)n2n1,> 50 µM (inactive),> 50 µM
CC(=O)c1ccc(N2CCN(C(=O)c3ccc4ncsc4c3)CC2)cc1,> 50 µM (inactive),> 50 µM
O=C(Nc1cccc(Cl)c1)N1CCN(c2ccccc2)CC1,5.5 µM,> 50 µM
O=C(c1ccc2c(c1)OCO2)N1CCN(c2ccccc2)CC1,22.8 µM,> 50 µM
COc1cccc(NC(=O)CCC2CCN(C(=O)c3ccc(C(C)=O)s3)CC2)c1,> 50 µM (inactive),> 50 µM
Cc1cccc(/C=C(\CCC(=O)O)c2nc3ccccc3s2)c1,3.1 µM,11.6 µM
O=C(Nc1ccc2snnc2c1)N1CCCCC1,50 µM,> 50 µM
CC(=O)c1ccc(N2CCN(C(=O)c3ccc4c(c3)OCO4)CC2)cc1,> 50 µM (inactive),> 50 µM
O=C(Nc1ccc2snnc2c1)N1CCOCC1,> 50 µM (inactive),> 50 µM
CC(=O)c1ccc(N2CCN(C(=O)c3ccc(Cl)cc3)CC2)cc1,> 50 µM (inactive),> 50 µM
COc1cc(/C=C/C(=O)Nc2cccnc2)cc(OC)c1OC,> 50 µM (inactive),> 50 µM
O=C(Nc1cccnc1)c1cnn2c(C(F)(F)F)cc(-c3ccccc3)nc12,> 50 µM (inactive),> 50 µM
O=C(c1ccc2c(c1)OCO2)N1CCN(Cc2ccccc2)CC1,> 50 µM (inactive),> 50 µM
CCOC(=O)N1CCN(C(=O)Nc2ccc3snnc3c2)CC1,50 µM,> 50 µM
